Two compounds from patent publication US20060100140A1, “Combination of a) n-{5-[4-(4-methyl-piperazino-methyl)-benzoylamido]2-methylphenyl}-4- (3-pyridyl)-2-pyrimidine-amine and b) a histone deacetylase inhibitor for the treatment of leukemia” (priority 2002, published 2006) can be followed below.

Common to all, as to format: cell-based, human
For assay [1], the system named is Compound I-resistant LAMA 84 cells (LAMA 84R). As to the kind of experiment: Apoptosis by Wright Giemsa-stained cytospin slides in resistant cells. Particulars: Table 7, 24 hr, Compound I (1.0 or 1.25 μM), SAHA (1.0 or 2.0). Here is the method:
For studies involving the LAMA 84-R line, cells are washed free of drug and resuspended in drug-free medium 48 h before experimentation.
Assessment of Apoptosis: After drug exposures, cytocentrifuge preparations are stained with Wright-Giemsa and viewed by light microscopy to evaluate the extent of apoptosis (i.e., cell shrinkage, nuclear condensation, formation of apoptotic bodies, etc.) as described previously (Yu et al., Nat. Rev. Cancer 1:294-202). For these studies, the percentage of apoptotic cells is determined by evaluating ≧500 cells/condition in triplicate. To confirm the results of morphological analysis, Annexin V/PI staining is used. Annexin V/PI (BD PharMingen, San Diego, Calif.) analysis of cell death is carried out as per the manufacturer's instructions. In studies involving TNF and TNF soluble receptor, both compound are combined and maintained at room temperature 20 min prior to use. For these experiments 1-2×10^5 cells per condition are harvested. Analysis is carried out using a Becton-Dickinson FACScan cytofluorometer (Mansfield, Mass.). […] The slides are treated with acetic acid/ethanol (1:2), stained with terminal transferase reaction mixture containing 1× terminal transferase reaction buffer (0.25 units/μl terminal transferase, 2.5 mM CoCl2, and 2 pmol fluorescein-12-dUTM; Boehringer Mannheim, Indianapolis, Ind.), and visualized using fluorescence microscopy.

For the next assay, the system named is Raf. Description: Western analysis of Raf expression in K562 cells. Conditions: 2.0 μM SAHA ± 250 nM Compound I, 16 hr. Here is the method: (§1) Immunoblot Analysis: Immunoblotting is performed as described previously (Yu et al., Nat. Rev. Cancer 1:294-202). In brief, after drug treatment cells are pelleted by centrifugation, and lysed immediately in Laemmli buffer [1×=30 mM Tris-base (pH 6.8), 2% SDS, […] β-mercaptoethanol, and 10% glycerol], and briefly sonicated. Homogenates are quantified using Coomassie protein assay reagent (Pierce, Rockford, Ill.). Equal amounts of protein (20 μg) are boiled for 10 min, separated by SDS-PAGE (5% stacker and 10% resolving), and electroblotted to nitrocellulose membrane. After blocking in TBS-T (0.05%) and 5% milk for 1 h at 22° C., the blots are incubated in fresh blocking solution with an appropriate dilution of primary antibody for 4 h at 22° C. […]
(§2) K562 cells are treated as above, and monitored for expression of Bcl-xL, Mcl-1, and XIAP. […]

In assay [2] the test system is cytochrome c, AIF, and Smac/DIABLO. Description: Western analysis of release of cytochrome c, AIF and Smac/DIABLO into S-100 cytosolic fraction. Conditions: K562; Compound I (250 nM), SAHA (2.0 μM); 24 hr.
Assay [3] relates to K562 cells. Description: Loss of mitochondrial membrane potential (DiOC6 flow cytometry). Particulars: 2.0 μM SAHA ± 250 nM Compound I. Here is the method: Determination of MMP(ΔΨm): MMP is monitored using DiOC6 [36]. For each condition, 4×10^5 cells are incubated for 15 min at 37° C. in 1 ml of 40 nM DiOC6 (Calbiochem) and subsequently analyzed using a Becton Dickinson FACScan cytofluorometer with excitation and emission settings of 488 and 525 nm, respectively. Control experiments documenting the loss of ΔΨm are performed by exposing cells to 5 μM of […] cyanide m-chlorophenylhydrazone (Sigma Chemical Co.; 15 min, 37° C.), an uncoupling agent that abolishes the MMP.

For assay [4], the system named is K562 cells. As to the kind of experiment: Apoptosis by morphological analysis of Wright Giemsa-stained cytospin preparations. Conditions: for percentage of apoptotic cells: Table 2A, 2.0 μM SAHA ± 250 nM Compound I; for % of apoptotic cells: Table 5, K562: SAHA […]. The protocol: (§3) Experimental Format: Logarithmically growing cells are placed in sterile plastic T-flasks (Corning, Corning, N.Y.) to which are added the designated drugs and the flasks replaced in the incubator for intervals. At the end of the incubation period, cells are transferred to sterile centrifuge tubes, pelleted by centrifugation at 400×g for 10 min at room temperature, and prepared for analysis as described below.
(§4) Assessment of Apoptosis: After drug exposures, cytocentrifuge preparations are stained with Wright-Giemsa and viewed by light microscopy to evaluate the extent of apoptosis (i.e., cell shrinkage, nuclear condensation, formation of apoptotic bodies, etc.) as described previously (Yu et al., Nat. Rev. Cancer 1:294-202). For these studies, the percentage of apoptotic cells is determined by evaluating ≧500 cells/condition in triplicate. To confirm the results of morphological analysis, Annexin V/PI staining is used. Annexin V/PI (BD PharMingen, San Diego, Calif.) analysis of cell death is carried out as per the manufacturer's instructions. In studies involving TNF and TNF soluble receptor, both compound are combined and maintained at room temperature 20 min prior to use. For these experiments 1-2×10^5 cells per condition are harvested. Analysis is carried out using a Becton-Dickinson FACScan cytofluorometer (Mansfield, Mass.). To further confirm the morphology results, TUNEL staining is used. For TUNEL staining, cytocentrifuge preparations are obtained and fixed with 4% formaldehyde. The slides are treated with acetic acid/ethanol (1:2), stained with terminal transferase reaction mixture containing 1× terminal transferase reaction buffer (0.25 units/μl terminal transferase, 2.5 mM CoCl2, and 2 pmol fluorescein-12-dUTM; Boehringer Mannheim, Indianapolis, Ind.), and visualized using fluorescence microscopy.

For assay [5], the system named is HL-60 promyelocytic leukemia cells. As to the kind of experiment: Apoptosis by Wright Giemsa-stained cytospin slides. Particulars: HL-60: SAHA 1.0 μM; Compound I 250 nM; 24 hr. Here is the method:
as §3, §4

Another assay deals with U937 monocytic leukemia. As to the kind of experiment: Apoptosis by Wright Giemsa-stained cytospin slides. Particulars: U937: SAHA 1.5 μM; Compound I 250 nM; 24 hr. Here is the method:
as §3, §4

The next assay concerns phospho-JNK. Description: Western analysis of phospho-JNK in K562 cells. Conditions: 2.0 μM SAHA ± 250 nM Compound I, 16 hr. The protocol:
as §1, §2

`Cc1ccc(NC(=O)c2ccc(CN3CCN(C)CC3)cc2)cc1Nc1nccc(-c2cccnc2)n1` [Compound I, N-{5-[4-(4-methyl-piperazino-methyl)-benzoylamido]-2-methylphenyl}-4-(3-pyridyl)-2-pyrimidine-amine]: in assay [1], the “Compound I + SAHA % of apoptotic cells” value was 14.8 ± 4.7%. Further, the “expression of Raf” value with Raf is listed as “little effect”. In addition, the “release of cytochrome c, AIF, and Smac/DIABLO into the cytosolic S-100 cell fraction” value in assay [2] was “minimal”. Further, the “percentage of cells displaying loss of mitochondrial membrane potential (ΔΨm)” value in the assay on K562 cells [3] (0 hours) amounted to 5.7 ± 1.8%; in the assay on K562 cells [3] (6 hours) it was 8.8 ± 1.9%; in the assay on K562 cells [3] (24 hours) it was 17.8 ± 3.4%; with K562 cells [3] (48 hours), 41.3 ± 4.3%. The apoptosis in the assay on K562 cells [4] (Table 1A, Compound I 100 nM, SAHA 0 or 2 μM, 24 hr) is reported as 1.1 ± 0.5%; in the assay on K562 cells [4] (Table 1A, Compound I 150 nM, SAHA 0 or 2 μM, 24 hr), 1.3 ± 0.6%; in the assay on K562 cells [4] (Table 1A, Compound I 200 nM, SAHA 0 or 2 μM, 24 hr), 1.6 ± 0.6%; in the assay on K562 cells [4] (Table 1A, Compound I 250 nM, SAHA 0 or 2 μM, 24 hr), 2.8 ± 1.2%; with K562 cells [4] (Table 1B, SAHA 0 μM, Compound I 250 nM, 24 hr), 2.7 ± 1.2%. In addition, the “percentage of apoptotic cells” value was 0.6 ± 0.2% in the assay with K562 cells [4] (0 hours); 1.1 ± 0.5% in the assay with K562 cells [4] (6 hours); 2.1 ± 0.8% with K562 cells [4] (12 hours); 3.3 ± 1.0% with K562 cells [4] (18 hours); 3.5 ± 1.2% in the assay on K562 cells [4] (24 hours); 21.8 ± 3.4% in the assay on K562 cells [4] (48 hours). The “% of apoptotic cells” value in the assay on K562 cells [4] (Compound I 250 nM, 24 hr) is recorded as 8.3 ± 3.2%; in assay [5], 3.1 ± 1.3%; in the assay with U937 monocytic leukemia it was 0.9 ± 08%. In addition, the “Compound I + SB % of apoptotic cells” value in the assay with K562 cells [4] (Table 6, K562, 24 hr, sodium butyrate (SB; 1 or 2 mM), Compound I concentration not given) stood at 10.3 ± 3.6%. Further, the cell death in the assay on K562 cells [4] (sensitive K562, Compound I (1.0 or 1.25 μM) for 48 hr, data not shown) is recorded as about 100%. The “expression of phospho-JNK (JNK activation)” value in the assay on phospho-JNK was “fail to modify”.

On to `O=C(CCCCCCC(=O)Nc1ccccc1)NO` [SAHA, suberoylanilide hydroxamic acid], for which, in assay [1], the “Compound I + SAHA % of apoptotic cells” value is on record as 10.3 ± 3.4%. In the assay with Raf, the “expression of Raf” value is on record as “clear reduction”. The “release of cytochrome c, AIF, and Smac/DIABLO into the cytosolic S-100 cell fraction” value in assay [2] is on record as “minimal”. For the same compound, the “percentage of cells displaying loss of mitochondrial membrane potential (ΔΨm)” value in the assay on K562 cells [3] (0 hours) amounted to 5.4 ± 1.6%; with K562 cells [3] (6 hours), 8.1 ± 1.9%; in the assay on K562 cells [3] (12 hours) it was 10.4 ± 2.1%; with K562 cells [3] (18 hours), 12.3 ± 2.8%; with K562 cells [3] (24 hours), 16.4 ± 2.9%; with K562 cells [3] (48 hours) it was 20.5 ± 2.8%. In addition, the apoptosis is 0.8 ± 0.4% in the assay with K562 cells [4] (Table 1B, SAHA 1 μM, Compound I 0 or 250 nM, 24 hr); 1.6 ± 0.7% in the assay on K562 cells [4] (Table 1B, SAHA 1.5 μM, Compound I 0 or 250 nM, 24 hr); 2.7 ± 0.7% in the assay with K562 cells [4] (Table 1B, SAHA 2.0 μM, Compound I 0 or 250 nM, 24 hr); 28.4 ± 3.2% in the assay on K562 cells [4] (Table 1B, SAHA 3.0 μM, Compound I 0 or 250 nM, 24 hr); 14.5 ± 1.3% in the assay with K562 cells [4] (Table 1B, SAHA […], Compound I 0 or 250 nM, 24 hr). In addition, the “percentage of apoptotic cells” value in the assay on K562 cells [4] (0 hours) is 0.6 ± 0.2%; with K562 cells [4] (6 hours), 0.9 ± 0.2%; in the assay with K562 cells [4] (12 hours) it was 1.7 ± 0.5%; in the assay with K562 cells [4] (18 hours) it was 2.3 ± 0.8%; in the assay on K562 cells [4] (24 hours), 3.5 ± 1.1%; in the assay with K562 cells [4] (48 hours) it was 14.8 ± 2.1%. In addition, the “% of apoptotic cells” value with K562 cells [4] (Compound I 250 nM, 24 hr) turned out to be 6.6 ± 3.8%; in assay [5], 6.4 ± 1.9%; in the assay with U937 monocytic leukemia, 5.4 ± 1.9%. Besides, the “expression of phospho-JNK (JNK activation)” value in the assay on phospho-JNK was “fail to modify”.
